Test results reported in patent US12433866B2, “Lasofoxifene treatment of aromatase-resistant ER+ cancer” (Sermonix Pharmaceuticals, Inc., priority 2021, dated 2025).

Legend:
[1] = tested on: MCF7 LTLT (AI-resistant, ER+, cells lacking ESR1 gain-of-function mutations) tumors; assay: MIND model: luciferase-GFP MCF7 LTLT cells in mammary ducts of NSG mice, live luminescence imaging of primary tumors (total photon flux); format: in vivo; details: for Inhibition of primary tumor growth (conclusion in words): MCF7 LTLT tumors, AI-resistant, no ESR1 gain-of-function mutations
Experimental: Luciferase-GFP tagged LTLT cells were injected into the mammary ducts of NSG mice (MIND model) and tumor progression was monitored by live luminescence imaging of primary tumors, as well as ex vivo imaging and histochemical analysis of metastatic sites at study endpoint. Primary tumor area was also measured at study endpoint.
Cells were grown in RPMI containing 10% FBS and 1 μM letrozole.
Mouse studies were performed in compliance with an approved Institutional Animal Care and Use Committee protocol. NSG (NOD.Cg-Prkdcscid Il2rgtmlWjl/SzJ) mice were purchased from The Jackson Laboratories. Prior to injection, mice were anesthetized via inhalation with 2-3% isoflurane in oxygen. […] Tumor growth in situ was followed via imaging in a Xenogen IVIS 200 instrument in the Integrated Small Animal Imaging Research Resource at the University of Chicago.
Lasofoxifene and vehicle were administered subcutaneously. Palbociclib was administered via oral gavage 5 times/week. […] Mice were also treated with combinations of lasofoxifene+palbociclib, fulvestrant+palbociclib, lasofoxifene+letrozole and palbociclib or fulvestrant+palbociclib, or letrozole.
MCF7 LTLT cells labeled with GFP luciferase were injected into the mammary ducts of NSG mice to establish tumors that represent an AI resistant, non-ESR1-mutated, breast cancer model. Treatment with lasofoxifene, palbociclib and combinations of lasofoxifene and palbociclib were carried out in the presence (Let^+) or absence (Let^−) of letrozole, to account for the potential loss of letrozole resistance (“reversion”) in the Let^− cohort. Mice were imaged every other week in a Xenogen IVIS scanner to estimate tumor growth. At the end of the study, mammary glands were removed and weighed.

MCF7 LTLT primary tumors [2] = assay: Mammary gland weight at sacrifice, MCF7 LTLT MIND model; format: in vivo, NSG mice; details: Let− cohort
Experimental: Mouse studies were performed in compliance with an approved Institutional Animal Care and Use Committee protocol. NSG (NOD.Cg-Prkdcscid Il2rgtmlWjl/SzJ) mice were purchased from The Jackson Laboratories. Prior to injection, mice were anesthetized via inhalation with 2-3% isoflurane in oxygen. Injections of single-cell suspensions of 250,000 MCF7 cells in the mammary ducts of inguinal glands 4 and 9 were performed as described (Behbod, F., et al. Breast Cancer Res. 11, R66 (2009); Sflomos, G., et al. Cancer Cell 29, 407-422 (2016); Laine, M., et al. Breast Cancer Res. 23, 54 (2021)). Tumor growth in situ was followed via imaging in a Xenogen IVIS 200 instrument in the Integrated Small Animal Imaging Research Resource at the University of Chicago. For IVIS imaging, mice were injected with 100 μl of a 0.1 M luciferin solution in PBS (Perkin Elmer XenoLight #122799).
After cell injection, mice were separated into 2 equal groups; one group received 10 μg/day of letrozole in 15% PEG400 in PBS via subcutaneous injection, “LTLT-Let”; the other group wasn't administered letrozole (“LTLT”). Two to three weeks after cell injections, mice in each group were randomized and treated 5 days/week with lasofoxifene (10 mg/kg, in 100 μl of PBS containing 15% PEG400), palbociclib (70 mg/kg, Med Chem Express #HY-50567, in 50 mM sodium lactate buffer pH4), or vehicle. […]

MCF7 LTLT primary tumors [3] = assay: Percent tumor area vs total gland area by H&E of mammary gland sections, MCF7 LTLT MIND model; format: in vivo, NSG mice; details: Let− cohort
Experimental: (§1) After cell injection, mice were separated into 2 equal groups; one group received 10 μg/day of letrozole in 15% PEG400 in PBS via subcutaneous injection, “LTLT-Let”; the other group wasn't administered letrozole (“LTLT”). Two to three weeks after cell injections, mice in each group were randomized and treated 5 days/week with lasofoxifene (10 mg/kg, in 100 μl of PBS containing 15% PEG400), palbociclib (70 mg/kg, Med Chem Express #HY-50567, in 50 mM sodium lactate buffer pH4), or vehicle. Lasofoxifene and vehicle were administered subcutaneously. Palbociclib was administered via oral gavage 5 times/week. Fulvestrant (Med Chem Express #HY-13636) (“IC”) (5 mg/mouse) was administered once per week via subcutaneous injection in 100 μl of mineral oil. Mice were also treated with combinations of lasofoxifene+palbociclib, fulvestrant+palbociclib, lasofoxifene+letrozole and palbociclib or fulvestrant+palbociclib, or letrozole.
Harvested tissues were fixed in formalin for IHC and H&E staining. Tissue histology was performed by the Human Tissue Resource Center (HRTC) at the University of Chicago. […]
(§2) H&E and IHC slides were scanned on a Nikon eclipse Ti2 microscope with a 10× objective for high resolution images. Ki67 score was determined using standardized manual counting.
H&E slides were scanned on a Nikon microscope and analyzed with the NSI element software.

MCF7 LTLT primary tumors [4] = assay: Ki67 proliferation index by immunohistochemistry on fixed mammary glands, MCF7 LTLT MIND model; format: in vivo, NSG mice; details: for Effect on Ki67 percentage / proliferation index (in words): MCF7 LTLT model, comparisons as stated; for % Ki67 % mean: MCF7 LTLT primary tumors, IHC at sacrifice after 90-93 days of treatment, manual counting, Let− cohort, and Let+ cohort where label includes letrozole; for Ki67 percentage (mean +/− standard deviation): Let+ cohort (all groups also received letrozole 10 μg/day)
Experimental: as §1
Harvested tissues were fixed in formalin for IHC and H&E staining. Tissue histology was performed by the Human Tissue Resource Center (HRTC) at the University of Chicago. Primary Glands excised from the mice were sectioned and stained with antibodies to estrogen receptor alpha (ThermoScientific, RM-9101-S0, clone SP1), progesterone receptor (ThermoScientific, RM-9102-S0, clone SP2), glucocorticoid receptor (Cell Signaling, Cat #3660), androgen receptor (Abcam, ab133273, clone EPR1535), Ki67 (ThermoScientific, Cat #RM-9106-s, Clone: SP6) and human-specific mouse monoclonal antibody to mitochondria (Abcam, ab92824, clone 112-1).
as §2
Immunohistochemistry with anti-Ki67 antibody was performed on fixed mammary glands to determine the proliferation index for MCF7 LTLT primary tumors.

MCF7 LTLT cells = assay: Ex vivo IVIS radiance of excised liver, lung, brain and bone at sacrifice (metastasis), MCF7 LTLT MIND model; parameters: species or system NSG mice; details: ex vivo radiance in bones at sacrifice
Experimental: as §1
After 90-93 days of treatment, mice were sacrificed, and mammary gland tumors were excised and weighed. Liver, bone brain and lungs were removed and imaged ex vivo in the IVIS 200, following an in vivo injection of luciferin 8 min prior to sacrifice, to measure luciferase activity.
At sacrifice, livers, lungs, bones and brains were excised and imaged ex vivo on the IVIS. […] Data for Let^+ group were evaluated but are not shown.

[5] = tested on: MCF-7 xenograft with activating ERα mutations; details: gain-of-function activating mutations in the ERα receptor; previous studies; cited from earlier work
[6] = post-menopausal women with no history of breast cancer, wild estrogen receptors; cited from earlier work

| Compound | Tumor photon flux in the presence of letrozole (in words) ([1]; Let+ cohort, data not shown) | Total photon flux over time (in words) ([1]; imaged every other week, Let− cohorts shown) | Mammary gland weight at end of study (in words) (MCF7 LTLT primary tumors [2]) | % tumor area of total gland area, H&E (in words) (MCF7 LTLT primary tumors [3]) | Effect on Ki67 percentage / proliferation index (in words) (MCF7 LTLT primary tumors [4]; Let+ cohort) | % Ki67 % mean (MCF7 LTLT primary tumors [4]) [%] | Bone readings with a signal above threshold (MCF7 LTLT cells) [readings] | Inhibition of primary tumor growth (conclusion in words) [1] | Inhibition of primary tumor growth (conclusion in words) ([1]; listed as Lasofoxifene) | Photon flux at day 104 (in words) ([1]; day 104, regardless of the presence of letrozole) | Reduction of the Ki67 percentage (MCF7 LTLT primary tumors [4]; Let+ cohort, versus letrozole control) [%] | Bone metastasis / bone radiance versus vehicle (in words) (MCF7 LTLT cells) | Inhibition of tumor growth and metastasis compared with fulvestrant (in words) [5] | Risk of ER+ breast cancer (in words) [6] | Ki67 percentage (mean +/− standard deviation) (MCF7 LTLT primary tumors [4]) |
| --- | --- | --- | --- | --- | --- | --- | --- | --- | --- | --- | --- | --- | --- | --- | --- |
| C[C@]12CC[C@@H]3c4ccc(O)cc4C[C@@H](CCCCCCCCC[S+]([O-])CCCC(F)(F)C(F)(F)F)[C@H]3[C@@H]1CC[C@@H]2O (stereo partly shown) [fulvestrant (ICI), fulvestrant] | appeared to increase tumor photon flux | higher than all other treatments | inhibits mammary gland weight | did not reach statistical significance | do not reduce Ki67% levels | 56.8 | 2 |  |  |  |  |  |  |  |  |
| Oc1ccc2c(c1)CC[C@H](c1ccccc1)[C@@H]2c1ccc(OCCN2CCCC2)cc1 [lasofoxifene] |  |  | inhibits increases in primary tumor weight | significantly lower |  | 46.0 |  | significantly inhibits primary tumor growth | significantly more effective than fulvestrant | significantly lower than vehicle and fulvestrant (ICI) treatment | 6.5 | appears to inhibit metastasis to the bone | more effective than fulvestrant at inhibiting tumor growth and metastasis to the liver, lung, bone and brain | reduce the risk of ER^+ breast cancer |  |
| N#Cc1ccc(C(c2ccc(C#N)cc2)n2cncn2)cc1 [letrozole] |  |  |  |  | significantly lowers the Ki67 percentage | 39.5 |  |  |  |  |  |  |  |  | 39.5+/−7.7% |
| CC(=O)c1c(C)c2cnc(Nc3ccc(N4CCNCC4)cn3)nc2n(C2CCCC2)c1=O [palbociclib] |  |  |  |  |  | 51.7 |  |  |  |  |  |  |  |  | 45.3+/−19.0% |
